The text below walks through data of US6346517B1, “Synergy between low molecular weight heparin and platelet aggregation inhibitors, providing a combination therapy for the prevention and treatment of various thromboembolic disorders” (Bristol-Myers Squibb Pharma Company, priority 1999, dated 2002).

“Also recorded” adds a separate entry of the source.

In assay [1] the test system is carotid artery thrombus formation. The experiment in a line: Electrically induced carotid artery thrombosis, carotid blood flow (rabbit model of arterial thrombosis). In kind it is in vivo. As to conditions: i.v. infusion from 1 hour before and during 90 min after electrical stimulation, aspirin 1 mg/kg/hr, Compound (A) 0.03 mg/kg/hr, Fragmin 60 U/kg/hr. The procedure: (§1) Rabbits were anesthetized with ketamine (50 mg/kg i.m.) and xylazine (10 mg/kg i.m.) and then surgically prepared with arterial and venous catheters. An electromagnetic flow probe was placed on a segment of an isolated carotid artery to monitor blood flow. Thrombus formation was induced by electrical stimulation of the carotid artery for 3 min at 4 mA using an external stainless-steel bipolar electrode. Carotid blood flow was measured continuously over a 90-min period to monitor thrombus occlusion. Test agents were infused intravenously 1 hour prior to the electrical stimulation of the carotid artery and continuously during the 90-min period.

A further assay has as its system preformed clot. Briefly: Thrombolysis of a preformed carotid clot in rats (reperfusion, patency, reocclusion). In kind it is in vivo. Particulars: for effectiveness in preventing thrombosis in this rat model: 0.3 mg/kg i.v., free acids. The procedure: as §1
Experiments were conducted in rats anesthetized with ketamine (110 mg/kg i.m.) and xylazine (10 mg/kg i.m.). The protocol is similar to the rabbit protocol as described above in Example 1 except that the free acid of a compound of the formula (B): [drawing 11]
or the free acid of sibrafiban and/or TPA were given 5 min after a preformed clot was formed. The measured parameters were time to reperfusion, duration of patency and incidence of reocclusion. The doses of TPA, sibrafiban and compound B used were 1, 0.3 and 0.3 mg/kg i.v., respectively.

Assay [2] concerns clot formation in human whole blood. Briefly: Computerized thromboelastography (TEG): mediator-induced clot formation under shear in whole blood. In kind it is cell-based. As to conditions: for enhancement of clot strength by platelets: TF-accelerated clot formation. The procedure: Clot formation was monitored at 37° C. in an oscillating plastic cylindrical cuvette (“cup”) and a coaxially suspended stationary piston (“pin”) with a 1 mm clearance between the surfaces, using a computerized Thrombelastograph (CTEG Model 3000, Haemoscope, Skokie, IL). The cup oscillates 4°45′ ( 1/12 radian) in either direction every 4.5 seconds, with a 1 second mid-cycle stationary period; resulting in a frequency of 0.1 Hz and a maximal shear rate of 0.1 per second. The pin is suspended by a torsion wire that acts as a torque transducer. […] The torque experienced by the pin (relative to the cup's oscillation) is plotted as a function of time. The amplitude on the TEG tracing is a measure of the rigidity of the clot; the peak strength or the shear elastic modulus attained by the clot, G, is a function of clot rigidity and can be calculated from the maximal amplitude (MA) of the TEG tracing.
The following parameters were measured from the TEG tracing (FIG. 5):
R, the reaction time (gelation time) represents the latent period before the establishment of a 3-dimensional fibrin gel network (with measurable rigidity of amplitude=2 mm).
Maximum Amplitude (MA, in mm) is the peak rigidity manifested by the clot.
Shear elastic modulus or clot strength (G, dynes/cm^2) is defined by: G=(5000* MA)/(96-MA) for computerized TEG. […]
To assess the effect of the TF modification on peak clot strength (G) was measured with and without the addition of TF in paired samples of WB and PRP. To document the contribution of activated platelets to the elastic modulus of fibrin clots, the effect of platelet number was measured by serially diluting PRP with PPP. The platelet count of each dilution was measured before performing TEG. […] The Thrombelastograph maximum amplitude (MA) for platelets MA (PLT)) was calculated by subtracting the MA from a platelet-poor plasma (PPP) sample MA (PPP) determined in one thromboelastography well from that of whole blood MA (WB) run simultaneously in the second thromboelastography well.

The mark [3] stands for this setting: rat, TPA 1, sibrafiban 0.3, compound B 0.3 mg/kg i.v., given 5 min after preformed clot, free acids used.

`CS(=O)(=O)O.Cc1noc(C)c1S(=O)(=O)N[C@@H](CNC(=O)C[C@H]1CC(c2ccc(C(=N)N)cc2)=NO1)C(=O)O` [Compound (A)]: the “effect on occlusion of the artery / carotid blood flow” value in assay [1] is recorded as “did not prevent the occlusion of the artery; also recorded: not effective”. For the molecule `CCOC(=O)COC1CCN(C(=O)[C@H](C)NC(=O)c2ccc(C(=N)NO)cc2)CC1` [sibrafiban, reference compound], in the assay on preformed clot, the “effectiveness in preventing thrombosis in this rat model” value was “equal effective”. For the molecule `CC(=O)O.CCCCOC(=O)N[C@@H](CNC(=O)C[C@H]1CC(c2ccc(C(=N)N)cc2)=NO1)C(=O)OC` [Compound B, roxifiban], the “enhancement of clot strength by platelets” value in assay [2] is “inhibited”. For `CC(=O)O.CCCCOC(=O)N[C@@H](CNC(=O)C[C@H]1CC(c2ccc(C(=N)N)cc2)=NO1)C(=O)OC` (stereo in doubt) [Compound B, roxifiban], the “effectiveness in preventing thrombosis in this rat model” value in the assay on preformed clot is “equal effective”. For the molecule TFPI: Tissue factor pathway inhibitor, in assay [2] (LPS 6.25 μg, human whole blood, mean ± SEM), the “IC50, clot formation (clot retraction) induced by LPS” value amounted to 0.09 ± 0.01 µg/mL. `CC(=O)Oc1ccccc1C(=O)O` [Aspirin, aspirin, reference compound]: the “effect on occlusion of the artery / carotid blood flow” value in assay [1] is given as “did not prevent the occlusion of the artery”. On to tissue plasminogen activator [TPA], for which the Incidence of reocclusion with preformed clot (rat, TPA 1, sibrafiban 0.3, compound B 0.3 mg/kg i.v., given 5 min after preformed clot, animals reoccluded/total) is reported as 15/17. In the assay on preformed clot (setting [3]), this molecule showed a Duration of patency of 29 ± 2% and a Time to reperfusion of 32 ± 6 min.

B1: Abciximab: c7E3 Fab (Abciximab, Centocor), platelet GPIIb/IIIa antagonist (antibody, chains of the INN, looked up, V domains shown)
VH: EVQLQQSGTVLARPGASVKMSCEASGYTFTNYWMHWVKQRPGQGLEWIGAIYPGNSDTSYIQKFKGKAKLTAVTSTTSVYMELSSLTNEDSAVYYCTLYDGYYVFAYWGQGTLVTVSA
VL: EIVLTQSPVTLSVTPGDSVSLSCRASRDISNNLHWFQQTSHESPRLLIKYASQSMSGIPSRFSGSGSGTDFTLSINSVETEDFGMYFCQQTNSWPYTFGGGTKLEIK
modifications: Fab
notes: c7E3 Fab (Abciximab, Centocor), platelet GPIIb/IIIa antagonist
With B1, in assay [2], the “enhancement of clot strength by platelets” value is listed as “inhibited”.
